± gives the expanded uncertainty stated by the source.
Conditions: for surface tension liquid-gas: Capillary rise; for viscosity / mass density: 101.33 kPa, Liquid; for viscosity: Capillary tube (Ostwald / Ubbelohde) method; for mass density: Pycnometric method

CCCCCCCCCCCC[N+](CC)(CC)CC.O=S(=O)([N-]S(=O)(=O)C(F)(F)F)C(F)(F)F
Conditions | mass density [kg/m3] | surface tension liquid-gas [mN/m] | viscosity [mPa·s]
298 K | 1191.1 ± 2 | 31.8 ± 0.5 | 311.8 ± 23
303 K | 1187.1 ± 2 | 31.3 ± 0.5 | 227.6 ± 18
308 K | 1183.1 ± 2 | 30.9 ± 0.5 | 167.7 ± 12
313 K | 1179.4 ± 2 | 30.3 ± 0.5 | 137.8 ± 9.4
318 K | 1175.7 ± 2 | 29.9 ± 0.5 | 98.82 ± 7.3
323 K | 1171.6 ± 2 | 29.5 ± 0.5 | 78.71 ± 4.9
328 K | 1167.9 ± 2 | 29.1 ± 0.5 | 62.52 ± 3.9
333 K | 1164.2 ± 2 | 28.5 ± 0.5 | 49.82 ± 2.9
338 K | 1160.7 ± 1.9 | 28.2 ± 0.5 | 41.48 ± 2.3
343 K | 1157.2 ± 2 | 27.7 ± 0.5 | 34.69 ± 1.9
348 K | 1153.3 ± 2 | 27.2 ± 0.5 | 29.44 ± 1.6
353 K | 1149.5 ± 2 | 26.8 ± 0.5 | 25.13 ± 1.3
358 K | 1145.5 ± 2 | 26.4 ± 0.5 | 21.3 ± 1.1
363 K | 1141.4 ± 2 | 26 ± 0.5 | 18.31 ± 0.9
368 K | 1137.6 ± 2 | 25.5 ± 0.5 | 16.51 ± 0.8
373 K | 1133.7 ± 2 | 25.2 ± 0.5 | 14.2 ± 0.74

CCCCCC[N+](CC)(CC)CC.O=S(=O)([N-]S(=O)(=O)C(F)(F)F)C(F)(F)F [triethylhexylammonium bis((trifluoromethyl)sulfonyl)imide]
Conditions | mass density [kg/m3] | surface tension liquid-gas [mN/m] | viscosity [mPa·s]
298 K | 1291.4 ± 2.2 | 34.1 ± 0.5 | 186.6 ± 13
303 K | 1287.4 ± 2.2 | 33.7 ± 0.5 | 137.9 ± 10
308 K | 1283.4 ± 2.1 | 33.3 ± 0.5 | 105.1 ± 7.2
313 K | 1279.5 ± 2.2 | 32.9 ± 0.5 | 81.64 ± 5.2
318 K | 1275.2 ± 2.2 | 32.5 ± 0.5 | 65.32 ± 4
323 K | 1271.3 ± 2.2 | 32.1 ± 0.5 | 52.03 ± 3.1
328 K | 1267.1 ± 2.2 | 31.7 ± 0.5 | 42.34 ± 2.4
333 K | 1262.5 ± 2.2 | 31.3 ± 0.5 | 35.41 ± 2
338 K | 1258.5 ± 2.2 | 30.9 ± 0.5 | 28.94 ± 1.6
343 K | 1254.5 ± 2.1 | 30.5 ± 0.5 | 24.77 ± 1.3
348 K | 1251.3 ± 2.1 | 30.1 ± 0.5 | 20.96 ± 1.1
353 K | 1247.3 ± 2.2 | 29.7 ± 0.5 | 18.03 ± 0.91
358 K | 1243.3 ± 2.2 | 29.3 ± 0.5 | 15.83 ± 0.78
363 K | 1238.4 ± 2.2 | 28.9 ± 0.5 | 13.9 ± 0.68
368 K | 1234.9 ± 2.1 | 28.5 ± 0.5 | 12.25 ± 0.58
373 K | 1231.1 ± 2.1 | 28.2 ± 0.5 | 10.86 ± 0.53

CCCCCCCC[N+](CC)(CC)CC.O=S(=O)([N-]S(=O)(=O)C(F)(F)F)C(F)(F)F [triethyloctylammonium bis[(trifluoromethyl)sulfonyl]imide]
Conditions | mass density [kg/m3] | surface tension liquid-gas [mN/m] | viscosity [mPa·s]
298 K | 1251.2 ± 2.1 | 33.1 ± 0.5 | 221.4 ± 16
303 K | 1247.2 ± 2.1 | 32.8 ± 0.5 | 163.9 ± 12
308 K | 1242.9 ± 2.1 | 32.3 ± 0.5 | 124.7 ± 8.6
313 K | 1239.4 ± 2.1 | 31.8 ± 0.5 | 96.76 ± 6.3
318 K | 1235.2 ± 2.1 | 31.4 ± 0.5 | 76.47 ± 4.8
323 K | 1231.3 ± 2.1 | 31 ± 0.5 | 60.52 ± 3.7
328 K | 1227.5 ± 2.1 | 30.6 ± 0.5 | 48.63 ± 2.9
333 K | 1223.2 ± 2.1 | 30.1 ± 0.5 | 39.85 ± 2.3
338 K | 1219 ± 2 | 29.7 ± 0.5 | 33.2 ± 1.8
343 K | 1216 ± 2 | 29.3 ± 0.5 | 28.23 ± 1.5
348 K | 1212.9 ± 2.1 | 28.9 ± 0.5 | 23.8 ± 1.3
353 K | 1207.8 ± 2.2 | 28.6 ± 0.5 | 20.36 ± 1
358 K | 1203.5 ± 2.1 | 28.1 ± 0.5 | 17.83 ± 0.89
363 K | 1200.2 ± 2.1 | 27.7 ± 0.5 | 15.55 ± 0.77
368 K | 1196 ± 2.1 | 27.3 ± 0.5 | 13.5 ± 0.66
373 K | 1192.3 ± 2.1 | 26.9 ± 0.5 | 12.05 ± 0.58

CCCCC[N+](CC)(CC)CC.O=S(=O)([N-]S(=O)(=O)C(F)(F)F)C(F)(F)F [triethylpentylammonium bis(trifluoromethylsulfonyl)imide]
Conditions | mass density [kg/m3] | surface tension liquid-gas [mN/m] | viscosity [mPa·s]
298 K | 1321.5 ± 2.2 | 35.7 ± 0.5 | 161.6 ± 11
303 K | 1317.4 ± 2.2 | 35.4 ± 0.5 | 121.4 ± 8.7
308 K | 1313.2 ± 2.2 | 35 ± 0.5 | 92.11 ± 6.3
313 K | 1308.9 ± 2.2 | 34.7 ± 0.5 | 71.86 ± 4.6
318 K | 1304.9 ± 2.2 | 34.3 ± 0.5 | 57.52 ± 3.5
323 K | 1301 ± 2.2 | 34 ± 0.5 | 46.74 ± 2.8
328 K | 1296.6 ± 2.2 | 33.6 ± 0.5 | 37.78 ± 2.2
333 K | 1293.1 ± 2.2 | 33.3 ± 0.5 | 31.43 ± 1.7
338 K | 1289.1 ± 2.2 | 32.9 ± 0.5 | 26.57 ± 1.4
343 K | 1284.7 ± 2.2 | 32.6 ± 0.5 | 22.47 ± 1.2
348 K | 1280.9 ± 2.2 | 32.2 ± 0.5 | 19.27 ± 0.99
353 K | 1277.3 ± 2.2 | 31.8 ± 0.5 | 16.71 ± 0.82
358 K | 1272.9 ± 2.3 | 31.5 ± 0.5 | 14.79 ± 0.73
363 K | 1268.6 ± 2.2 | 31.1 ± 0.5 | 12.87 ± 0.63
368 K | 1265.1 ± 2.2 | 30.7 ± 0.5 | 11.5 ± 0.55
373 K | 1260.7 ± 2.3 | 30.4 ± 0.5 | 10.17 ± 0.49
